Laboratory results reported in paper PMC5331435, “Metabolism of Zearalenone and Its Major Modified Forms in Pigs” (Toxins, 2017).
“Also recorded” adds a separate entry of the source.

Key:
human Caco-2/TC7 cells = details: after six and 24 h; cited from earlier work
human gut microbiota = details: cited from earlier work; for Share hydrolyzed after incubation with human gut microbiota: four hours; for Dose converted to unidentified metabolites / not recovered as identified metabolites / Dose detected as the aglycone (ZEN, α-ZEL or β-ZEL): incubation with human gut microbiota
[1] = difference of hydrolyzed and untreated urine; cited from earlier work
[2] = oral dose, cited from earlier work; for Recovery in rats: rats (ZEN-14-Glc as ZEN equivalents)
human estrogen receptor = tested on: human estrogen receptor; parameters: method as in PMID 16751557; details: cited from earlier work
[3] = parameters: method as in PMID 2143610; details: contaminated feed, one pig; cited from earlier work
[4] = tested on: human breast cancer cells (MCF7); parameters: method as in PMID 26792714; details: MCF7 including fetal bovine serum; cited from earlier work
[5] = Excretion and biological recovery of ZEN and its metabolites in urine and feces of piglets after a single oral bolus (HPLC-MS/MS); assay type: in vivo, pigs; details: for Hydrolysis in the gastrointestinal tract of pigs: oral application, conclusion from excreta analysis
Description: Four castrated male weaning piglets (sow: Landrace × Large White, boar: Pietrain; 33–35 days old, 7.9 ± 0.6 kg) were obtained from a local producer in Lower Austria. Animals were housed separately in metabolic cages in total for 22 days and were allowed to acclimatize for five days before the start of the experiment. They had free access to water and feed was provided twice per day (semi ad libitum). The diet was analyzed for its concentration of ZEN and naturally occurring metabolites thereof.
(§1) Using a repeated measures design, the piglets (n = 4) received water (negative control), ZEN (10 µg/kg b.w.; positive control) and the equimolar dose of ZEN-14-S (12.5 µg/kg b.w.), ZEN-16-Glc (15.1 µg/kg b.w.) and ZEN-14-Glc (15.1 µg/kg b.w.) per gavage (orogastric application) on day 1, 3, 7, 11, and 15 of the experiment, respectively. From the stock solutions containing between 991 (ZEN-14-S) and 1274 (ZEN-14-Glc) µg/mL of the analytes the adequate volumes for the animal experiment were removed and diluted with water for the oral application to obtain 5 µg/mL ZEN and the equimolar concentration of the other analytes in the aqueous stock solutions. Using polyvinyl chloride catheters (diameter 4.7 mm, Ch 14, mpö pfm GesmbH (Klagenfurt, Austria), length was adapted to the size of the esophagus of the piglets), volumes between 16 and 30 mL of the aqueous stock solutions were orally administered to the piglets, considering the piglets’ weight. After the toxin application, 10 mL of water was used to flush the catheter. Urine and feces of each of the piglets were quantitatively collected for the periods 0–24 h and 24–48 h after dosing. Urine was measured volumetrically on site and all excreta samples were stored at −20 °C until lyophilization (feces) or sample preparation and analysis (urine). The general condition of the animals was observed daily during the experiment.
Urine samples were diluted 1:5000 with water and the creatinine content was determined by LC-MS/MS as described earlier. For determination of ZEN, its plant and fungal metabolites and their metabolites in pigs, urine samples were diluted to 0.2 mM creatinine with water and centrifuged prior to HPLC-MS/MS analysis.
Five-hundred milligram aliquots of freeze-dried and thoroughly homogenized feces samples were extracted three times (90/30/30 min) with 5 mL each of ACN/water (50/50, v/v) on a GFL rotary shaker (type 3017, Burgwedel, Germany). After each extraction step, samples were clarified by centrifugation (10 min, 12,500 rpm, GS-15 centrifuge, Beckman Coulter, Indianapolis, IN, USA). Aliquots of the pooled supernatants were centrifuged and measured by HPLC-MS/MS.
Analysis of the feces and urine samples was performed on a 1290 Infinity series UHPLC system (Agilent Technologies, Waldbronn, Germany) coupled to a 6500 QTrap mass spectrometer equipped with an IonDrive TurboV source (Sciex, Foster City, CA, USA). Analyst software version 1.6.2 (Sciex, Foster City, CA, USA) was used for instrument control and data analysis. Chromatographic separation was carried out on a Kinetex Biphenyl column (150 mm × 3 mm, 2.6 µm, Phenomenex, Aschaffenburg, Germany). Eluent A consisted of water/acetic acid (99.9/0.1, v/v), eluent B was composed of ACN/acetic acid (99.9/0.1, v/v). […] At 14 min, 100% was reached which was held until 16.9 min. Afterwards, the column was re-equilibrated at 15% B for 3 min, resulting in a total run time of 20 min. The flow rate was 400 µL/min, the column temperature was 30 °C and the injection volume was 2 µL. Mass spectrometric detection was performed in negative electrospray ionization mode and selected reaction monitoring (SRM) was applied as scan type. The source settings were as follows: source temperature 400 °C, ion spray voltage −4500 V, curtain gas 35 psi (ca. 240 kPa), ion source gas 1 at 55 psi (ca. 379 kPa) and gas 2 at 65 psi (ca. 448 kPa), collision gas (nitrogen) high. […]

[6] = tested on: human intestinal bacteria; parameters: method as in PMID 23347206; details: human in vitro model; cited from earlier work
[7] = parameters: method as in PMID 27856298; details: in vitro; cited from earlier work
[8] = tested on: intestinal bacteria from human fecal slurry; parameters: method as in PMID 24386883; details: cited from earlier work
[9] = pigs, cited from earlier work
[10] = parameters: method as in earlier work; details: humans, based on studies in pigs; cited from earlier work
piglets = test: Observation of clinical symptoms in treated piglets; assay type: in vivo, pigs; details: single orogastric bolus, 10 µg/kg b.w. ZEN or equimolar dose, four piglets
Description: For animal welfare considerations, amounts of administered toxins were chosen on the basis of no-observed-effect-levels of 10 µg/kg body weight per day for oral application in pigs. In short, four piglets received a single orogastric bolus of ZEN (10 µg/kg b.w.) and of its plant or fungal metabolites (at equimolar dose), respectively, using a repeated measures design.
as §1, with “Using polyvinyl chloride catheters (diameter 4.7 mm, Ch 14, mpö pfm GesmbH (Klagenfurt, Austria), length was adapted to the size of the esophagus of the piglets), volumes between 16 and 30 mL of the aqueous stock solutions were orally administered to the piglets, considering the piglets’ weight. After the toxin application, 10 mL of water was used to flush the catheter.” left out, “The general condition of the animals was observed daily during the experiment.” left out

uterus weight = tested on: uterus weight; parameters: method as in PMID 1827972; details: intragastric, rats n = 6 per treatment; cited from earlier work
[11] = after oral administration, piglets
[12] = urine samples after oral administration, piglets

## CC1CCCC(O)CCCC=Cc2cc(OC3OC(CO)C(O)C(O)C3O)cc(O)c2C(=O)O1 (stereo not drawn) [α-ZEL-14-Glc]
Human Caco-2/TC7 cells
  Amount detected in the basolateral compartment: only traces
Human gut microbiota
  Share hydrolyzed after incubation with human gut microbiota: over 97%
  Dose converted to unidentified metabolites / not recovered as identified metabolites: 40%
  Dose detected as the aglycone (ZEN, α-ZEL or β-ZEL): 60%

## C[C@H]1CCC[C@@H](O)CCC/C=C/c2cc(O)cc(O)c2C(=O)O1 [β-ZEL, β-zearalenol]
[1]
  Glucuronidation in pig urine: 94%
  Glucuronidation in urine: 56%

## [13CH3][13C@H]1[13CH2][13CH2][13CH2][13C](=O)[13CH2][13CH2][13CH2]/[13CH]=[13CH]/[13c]2[13cH][13c](O)[13cH][13c](O)[13c]2[13C](=O)O1 [^13C-labeled ZEN]
[2]
  Recovery in rats: 74%

## C[C@H]1CCCC(=O)CCC/C=C/c2cc(O[C@@H]3O[C@H](CO)[C@@H](O)[C@H](O)[C@H]3O)cc(O)c2C(=O)O1 [ZEN-14-Glc, zearalenone-14-O-β-glucoside]
Human estrogen receptor
  Interaction with the human estrogen receptor: interrupted
Human Caco-2/TC7 cells
  Amount detected in the basolateral compartment: only traces
Human gut microbiota
  Share hydrolyzed after incubation with human gut microbiota: over 97%
  Dose converted to unidentified metabolites / not recovered as identified metabolites: 50%
  Dose detected as the aglycone (ZEN, α-ZEL or β-ZEL): 40%
[3]
  Metabolization during digestion in the pig: completely metabolized to ZEN and α-ZEL
[4]
  Conversion by MCF7 cells: convert ZEN-14-Glc to ZEN, α-ZEL and β-ZEL
[5]; [11]
  Detection of the intact administered conjugate in urine and feces: none of the glucosides could be detected in urine or feces
[5]; after oral administration, piglets, listed as ZEN-14-O-β-glucoside
  Detection of the intact administered conjugate in urine and feces: neither detected in urine nor in feces
[5]
  Hydrolysis in the gastrointestinal tract of pigs: readily hydrolyzed to ZEN
[5]; listed as ZEN-14-O-β-glucoside
  Hydrolysis in the gastrointestinal tract of pigs: completely hydrolyzed
[6]
  Hydrolysis upon incubation with human intestinal bacteria: completely hydrolyzed within 30 min
[7]
  Hydrolysis in bovine serum, plasma and whole blood: in vitro hydrolysis of ZEN-14-Glc and release of ZEN
[2]
  Recovery in rats: 71%
[2]; rats
  Hydrolysis in the GI tract of rats: partly hydrolyzed in the upper part of the GI tract

## C[C@H]1CCC[C@@H](O)CCC/C=C/c2cc(O[C@@H]3O[C@H](CO)[C@@H](O)[C@H](O)[C@H]3O)cc(O)c2C(=O)O1 [β-ZEL-14-Glc]
Human gut microbiota
  Share hydrolyzed after incubation with human gut microbiota: over 97%
  Dose converted to unidentified metabolites / not recovered as identified metabolites: 70%
  Dose detected as the aglycone (ZEN, α-ZEL or β-ZEL): 30%

## C[C@H]1CCCC(=O)CCC/C=C/c2cc(O)cc(O[C@@H]3O[C@H](CO)[C@@H](O)[C@H](O)[C@H]3O)c2C(=O)O1 [ZEN-16-Glc, zearalenone-16-O-β-glucoside]
[8]; after two hours
  Residue in the fecal slurry: no residue
[8]; within 30 min
  Conversion by intestinal bacteria from human fecal slurry: nearly completely converted to ZEN within 30 min
[5]; [11]
  Detection of the intact administered conjugate in urine and feces: none of the glucosides could be detected in urine or feces
[5]; after oral administration, piglets, listed as ZEN-16-O-β-glucoside
  Detection of the intact administered conjugate in urine and feces: neither detected in urine nor in feces
[5]
  Hydrolysis in the gastrointestinal tract of pigs: readily hydrolyzed to ZEN
[5]; listed as ZEN-16-O-β-glucoside
  Hydrolysis in the gastrointestinal tract of pigs: completely hydrolyzed
[5]; [12]
  Concentration of ZEN-14-GlcA in urine: traces

## C[C@H]1CCCC(=O)CCC/C=C/c2cc(O)cc(O)c2C(=O)O1 [ZEN, zearalenone]
[9]; 24 h after application
  Mean percentage of ingested ZEN excreted into urine: 28.4%
[9]; intravenous
  Biological recovery of intravenously administered ZEN: 77%
  Part eliminated via urine within 12 h: 44%
[9]; intravenously administered
  Terminal elimination half-life: 2.63 h
[9]; oral, after 48 h
  Biological recovery of orally administered radiolabeled ZEN: 67%
[9]
  Radioactive ZEN excreted in bile that was reabsorbed into the systemic blood system: about 85%
[10]
  Tolerable daily intake (TDI): 0.25 µg/kg b.w.
[1]
  Glucuronidation in pig urine: 27%
  Glucuronidation in urine: 23%
[5]; [11]
  Detection of β-ZEL in urine and feces: neither be detected in urine nor in feces samples
piglets
  Clinical symptoms during and after treatment: no clinical symptoms were observed

## C[C@H]1CCC[C@H](O)CCC/C=C/c2cc(O)cc(O)c2C(=O)O1 [α-ZEL, α-zearalenol]
[1]
  Glucuronidation in pig urine: 88%
  Glucuronidation in urine: 75%

## C[C@H]1CCCC(=O)CCC/C=C/c2cc(OS(=O)(=O)O)cc(O)c2C(=O)O1 [ZEN-14-S, zearalenone-14-sulfate]
Uterus weight
  Estrogenic activity (effect on uterus weight): partially retained the estrogenic activities of ZEN
[5]; [11]
  Detection of the intact administered conjugate in urine and feces: neither detected in urine nor in feces samples
[5]; after oral administration, piglets, listed as ZEN-14-sulfate
  Detection of the intact administered conjugate in urine and feces: neither detected in urine nor in feces
[5]; after oral application, piglets, listed as ZEN-14-sulfate
  ZEN metabolites in feces: no ZEN metabolites were detected
[5]
  Hydrolysis in the gastrointestinal tract of pigs: rapidly hydrolyzed; also recorded: readily hydrolyzed to ZEN
[5]; listed as ZEN-14-sulfate
  Hydrolysis in the gastrointestinal tract of pigs: completely hydrolyzed
[5]; second sampling period (24–48 h), piglets
  Concentration of ZEN in urine: Only traces
[5]; [12]
  Concentration of α-ZEL in urine: traces
[6]
  Hydrolysis upon incubation with human intestinal bacteria: completely hydrolyzed within 30 min
